From a melting point compilation (Tetko et al.; mined from patent text by program, amines drawn as free bases though some values may be those of a salt)

Row | Structure (SMILES) | melting point [°C]
1 | CCCOc1ccccc1C(=O)Nc1cc(SC)ccc1C(N)=O | 178 to 181
2 | N#Cc1nn(-c2c(Cl)cc(C(F)(F)F)cc2Cl)c(NCc2ccncc2)c1SCF | 204
3 | COc1ccc(OCc2ccccn2)cc1/C=C/c1cc(/C=C/c2ccc3[nH]ccc3c2)n[nH]1 | 116 to 122
4 | CC(C)(C)OC(=O)N(CCCC(=O)NO)Cc1cc2nc(-c3cccc4[nH]ncc34)nc(N3CCOCC3)c2s1 | 149 to 152
5 | CCOC(=O)c1c(N)c(C)nn1C | 55.5 to 56.5
6 | CC1(C)CCC(C)(C)c2cc(-c3ccc(O)c(-c4ccc(C(=O)O)cc4)c3)ccc21 | 264 to 267
7 | COC(=O)Cc1cc(OC)ccc1C(C)=O | 74 to 76
8 | Oc1ccc(C(c2ccc(O)cc2)c2cccc3ccccc23)cc1 | 109 to 111
9 | CCOC(=O)CCc1cn(CCc2ccc(OCc3nc(-c4ccccc4)oc3C)cc2)nc1-c1ccccc1 | 81 to 82
10 | Cc1ccnc(NC(=O)c2c(-c3ccc(F)cc3)c(-c3ccc(F)cc3)c(C=O)n2C(C)C)n1 | 173 to 175
11 | CCCCCCCCOc1ccc(-c2ccc(O)cc2)cc1 | 154
12 | CN(C)CCCOc1ccccc1CNc1ccccc1 | 67 to 69
13 | NC(=S)NN1CCc2cc(Cl)ccc21 | 199 to 200
14 | Cc1[nH]c(N)c(C)c1-c1ccnc(Nc2ccc(F)cc2)n1 | 227 to 231
15 | O=C(Nc1ccc2oc(N3CCOCC3)cc(=O)c2c1)OCc1ccccc1 | 245 to 250
16 | CCOCc1nc2c(N)nc3ccccc3c2n1CCOCCNC(=O)c1ccccc1 | 154 to 156
17 | Fc1cccc(-c2ccc3nnn(Cc4ccc5ncccc5c4)c3n2)c1 | 145 to 147
18 | CCOCCOC(=O)C(=O)Nc1nc(-c2ccc(OC)cc2OC)cs1 | 118 to 120
19 | O=[N+]([O-])c1ccc(C=Cc2nccn2Cc2ccccn2)o1 | 141 to 142
20 | N#Cc1cc(N)cc([N+](=O)[O-])c1 | 168 to 170
21 | O=C(O)Cn1cccc1 | 88 to 90
22 | C[C@@H](N1CCN(c2ccc(OCC(F)(F)C(F)(F)F)cc2)C1=O)[C@@]1(c2ccc(F)cc2F)CO1 | 141 to 144

Row | Structure (SMILES) | melting point [°C]
23 | CC(CNc1cccc(C(F)(F)F)c1)Nc1cccc(C(F)(F)F)c1 (configuration not stated) | 116 to 120
24 | O=C(CCc1c(O)c2ccccc2oc1=O)c1ccccc1 | 149 to 151
25 | CCCCCCCCc1ccc(OCC(O)Cn2cccn2)cc1 (configuration not stated) | 88
26 | O=C1OCC2C3OC(C4CCCCC43)C12 (configuration not stated) | 90 to 91
27 | CC(C)=CCCC(C)=CCNC(=O)Nc1ccccc1CCc1cc(C(C)(C)C)c(O)c(C(C)(C)C)c1 | 87 to 87.5
28 | COc1cc2cc3ncc(C#N)c(Nc4ccc(F)c(Cl)c4)c3cc2cc1OCCN1CCOCC1 | 205 to 210
29 | OCc1ccc(Oc2cccnc2)c(C(F)(F)F)c1 | 96
30 | O=C(c1cccc(C(F)(F)F)c1)c1ncccc1C(O)=NNc1ccc(C(F)(F)F)cc1 | 127 to 129
31 | CC1(C)OCc2cc(CCNC(=O)C(F)(F)F)ccc2O1 | 91 to 93
32 | CCc1cc(CSCCNC(=C[N+](=O)[O-])NC)oc1CN(C)C | 91
33 | COc1ccc(CC(=O)NCCc2ccc(N)cc2)cc1 | 112 to 114
34 | CN1CCN(c2c(CO)cnc3c(NC(=O)c4c(Cl)cccc4Cl)cccc23)C1=O | 251 to 253
35 | COC(=O)c1cccc(C=CC(=O)O)c1 | 189 to 190
36 | CC(C)(C)OC(=O)N1CCC2(CC1)CC(c1ccc(C(C)(C)C)cc1)=NO2 | 172 to 173
37 | COC(=O)COc1ccc(C[C@H](NC(=O)OC(C)(C)C)C(=O)O)cc1 | 75 to 79
38 | CO[C@](C)(c1cc(F)cc(OCc2ccc3ccccc3c2)c1)[C@H](C)O (racemic) | 62 to 63
39 | CC(C)(C)C(=O)CN1C(=O)C(NC(=O)Nc2cccc(C(=O)NS(C)(=O)=O)c2)CN(c2ccccc2)c2ccccc21 (configuration not stated) | 229 to 233
40 | O=C1c2ccccc2C(=O)N1CC(Cl)(CCl)c1ccccc1 (configuration not stated) | 114 to 115
41 | CCCCCCCCON=C(C(=O)OCC)c1csc(N)n1 | 77 to 78
42 | CC1(C)OC(=O)Nc2ccc(-c3ccccc3CC#N)cc21 | 176 to 179
43 | CC(C)C(NC(=O)c1ccc(C(=O)NCc2ccc([N+](=O)[O-])cc2)cc1)C(=O)N1CCCC1C(=O)NC(C(=O)C(F)(F)F)C(C)C (mixture of isomers) | 94 to 96
44 | CN(C)S(=O)(=O)c1cn(C)c2cc(Cl)ccc2c1=O | 207 to 209

Row | Structure (SMILES) | melting point [°C]
45 | Cc1cc(F)ccc1-n1c(CF)nc2ccc([N+](=O)[O-])cc2c1=O | 171 to 173
46 | CNCC1Cc2cc(F)cc(-c3cccc(OC)c3OC)c2O1 (configuration not stated) | 85 to 89
47 | COc1cc(CN)nc(SC)n1 | 35 to 38
48 | C(=C\c1nc2ccccc2n1-c1ccccn1)/c1ccoc1 | 162 to 164
49 | C[C@H]1CN(c2c(F)cc3c(=O)c(C(=O)O)cn(CCF)c3c2Cl)C[C@H]1NC(=O)OC(C)(C)C (relative stereo) | 229 to 231
50 | O=C(CCl)Nc1ccc2c(c1NC(=O)c1cc(C(F)(F)F)ccc1C(F)(F)F)C(=O)c1ccccc1C2=O | 187 to 188
51 | CCc1cc(Nc2ccc([N+](=O)[O-])cc2)n2nccc2n1 | 158 to 160
52 | O=[N+]([O-])c1sc(Oc2ccccc2)nc1Cl | 96
53 | CCCCCC(CC(=O)Nc1cc(C(N)=O)ccc1C(C)(C)C)c1cc(Br)c(OC)cc1OC (configuration not stated) | 102 to 104
54 | COc1cc2c(cc1OCc1ccccc1)ncc1c(N)nc(-n3ccnc3)cc12 | 140
55 | Cc1ccc2c(c1)C=C(C(=O)O)C(C(F)(F)F)O2 (configuration not stated) | 192 to 193
56 | COc1ccc(-c2nc(S(=O)c3ccc(C)cc3)n(C3CCCCO3)c2-c2ccc(OC)cc2)cc1 (configuration not stated) | 162 to 164
57 | COc1cccc(CCNCCc2c[nH]cn2)c1 | 98 to 100
58 | CC(C)(Oc1ccc(Cl)cc1)C(=O)N1[C@@H](C(=O)O)C(C)(C)S[C@H]1c1ccccc1 | 177 to 181
59 | CCc1nc2c(N)nc3cc(OCCNC(=O)OC(C)(C)C)ccc3c2n1CC1CCOCC1 | 200 to 201
60 | COc1c(Cl)ccc(Cl)c1C(=O)NN | 144 to 145
61 | CCCCCCCCCCCCCCCC(=O)CSC | 38 to 40
62 | c1ccc(-c2ccc3nncn3n2)nc1 | 191 to 192
63 | CC(C)S(=O)(=O)C1C(=O)N(Cc2ccccc2F)C(=O)c2ccccc21 (configuration not stated) | 174 to 181
64 | Cc1cccc2c(Nc3cc(CO)cc(NC(=O)Nc4ccc(N(CCCl)CCCl)cc4)c3)c3ccccc3nc12 | 251 to 252
65 | O=C(Nc1cc(C(F)(F)F)cc2ncn(-c3ccccc3)c12)c1ccccc1 | 152 to 155

Second part, the compound after the results:

Row | melting point [°C] | Structure (SMILES)
66 | 154 to 155 | Cc1ncc(C(O)=S)cc1OC(C)C
67 | 106 to 108 | CC1(C)CCC(=O)Nc2cc(OCCCCN3CCN(c4cccc(Cl)c4Cl)CC3)ccc21
68 | 82 to 84.5 | O=[N+]([O-])c1ccc(OCc2ccccc2)cc1Cl
69 | 99 to 101 | CC(C)(C)NC(=O)Nc1ccc([N+](=O)[O-])cc1O
70 | 112 to 115 | O=C1C(c2c[nH]c3ccccc23)C(c2c[nH]c3ccccc23)C(=O)N1Cc1ccccc1 (configuration not stated)
71 | 195 | Cc1ccc(S(=O)(=O)Nc2cccc([N+](=O)[O-])c2N)cc1
72 | 135 to 138 | CCCCOCCOc1ccc(-c2ccc(N3CCCCCC3)c(C=CC(=O)O)c2)cc1
73 | 233 to 234 | OC(c1ccc(Cl)cc1)(c1ccc(Cl)cc1)c1nnc[nH]1
74 | 108 to 109 | Cc1cccc(-n2nc(C)c(C)c2-c2cc3cnccc3s2)n1
75 | 192 to 194 | CCCNC(=O)C(C)Cc1ccc2ccn(Cc3ccc(C(=O)NS(=O)(=O)c4ccccc4C)cc3OC)c2c1 (configuration not stated)
76 | 132 to 134 | CCCc1cc(NC(=O)c2c(C)nn(C)c2C)c(C)cc1C(OC)(C(F)(F)F)C(F)(F)F
77 | 255 | CCOC(=O)c1nc2c(=O)[nH]c3cc(C(F)(F)F)ccc3n2c1CN1CCN(C)CC1
78 | 169 to 171 | Cc1cccc(CC(=O)N[C@H]2C[C@H](C(=O)O)Nc3cc(Cl)cc(Cl)c32)c1 (relative stereo)
79 | 68 to 70 | COC(=O)c1ccccc1N(C)C(=O)c1ccc(OC)nc1
80 | 228 to 229 | C/C(=C\C(=O)NCc1cccnc1)c1ccc(OCC(=O)O)cc1
81 | 185 to 186 | O=C(NCc1ccc(Cl)cc1)c1cnc2sc(CCCO)cc2c1O

Row | melting point [°C] | Structure (SMILES)
82 | 158 to 160 | COc1ccc(C=CC(=O)Nc2ccc(C(C)(C)C)cc2)cc1
83 | 240 to 242 | Nc1nc2c(ncn2OCC/C=C\P(=O)(O)O)c(=O)[nH]1
84 | 178 to 179 | N=C(N)NCCCOc1ccc2c(c1)CC(CC(=O)O)C(=O)N2 (configuration not stated)
85 | 127 to 128 | COC(=O)c1cc(C)cc(OC)c1C1=C(OC)C(=O)c2c(OC(C)=O)cccc2C1=O
86 | 102 | O=[N+]([O-])c1cc(CN2CCN(C(c3ccccc3)c3ccccc3)CC2)ccc1Cl
87 | 185 to 187 | CC(NC(=O)OC(C)(C)C)C(=O)NC1CCN(c2c(F)cc3c(=O)c(C(=O)O)cn(C4CC4)c3c2F)C1 (configuration not stated)
88 | 164 to 165 | O=C1CCC2(CCN1)Cc1ccccc1C2
89 | 107 to 115 | CCCn1cc(Cc2ccc(C(=O)NS(=O)(=O)c3ccccc3C)cc2OC)c2cc(CC3CCN(CC)C3=O)ccc21 (configuration not stated)
90 | 174 to 175 | C[C@@H]1CN(C(=O)[C@@](C)(O)C(F)(F)F)[C@@H](C)CN1S(=O)(=O)c1ccc(F)cc1
91 | 100 to 102 | CC(c1ccc(-c2ccccc2)c(F)c1)c1nc(CC(=O)O)no1 (configuration not stated)
92 | 238 to 240 | CN(c1ccc(O)cc1)c1nc2cc(Cl)ccc2s1
93 | 117 to 119 | OC(c1ccccc1)c1ccccc1CNC(=S)NCCc1ccccc1 (configuration not stated)
94 | 82 to 84 | COc1cc(Oc2cccc(C(F)(F)F)c2)nc(C(=O)NCCSCCF)c1
95 | 96 to 97 | CN1Cc2c(cc(CN3CCOCC3)n2C)C(c2ccccc2)C1 (configuration not stated)
96 | 197 to 200 | COc1cc(OC)c(-c2cc3ccccc3[nH]2)cc1C=CC(=O)c1ccc(S(=O)(=O)NCCCn2ccnc2)cc1
97 | 205 | CC1C(=NO)SCC(=O)N1C (configuration not stated)
